Measurements: PubChem BioAssay (NCI)
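Compound exposure: 48 hours, 5 concentrations, 96-well plates. GI50 marks 50% less growth. At the TGI there is no net growth.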

Experiments:
Test in all cases: growth of human tumour cells (NCI), 48 h
SK-MEL-5 melanoma = tested on: SK-MEL-5 melanoma
HT29 colon = tested on: HT29 colon
IGROV1 ovarian = tested on: IGROV1 ovarian
T-47D breast = tested on: T-47D breast
A549 NSCLC = tested on: A549 NSCLC
TK-10 renal = tested on: TK-10 renal
HS 578T breast = tested on: HS 578T breast
NCI-H522 lung = tested on: NCI-H522 lung
SF-295 CNS = tested on: SF-295 CNS
EKVX NSCLC = tested on: EKVX NSCLC
PC-3 prostate = tested on: PC-3 prostate
SF-268 CNS = tested on: SF-268 CNS
CAKI-1 renal = tested on: CAKI-1 renal
NCI-H226 lung = tested on: NCI-H226 lung
UO-31 renal = tested on: UO-31 renal
SK-MEL-2 melanoma = tested on: SK-MEL-2 melanoma
OVCAR-5 ovarian = tested on: OVCAR-5 ovarian
COLO 205 colon = tested on: COLO 205 colon
SNB-19 CNS = tested on: SNB-19 CNS
HOP-92 NSCLC = tested on: HOP-92 NSCLC
MDA-MB-231 breast = tested on: MDA-MB-231 breast
MALME-3M melanoma = tested on: MALME-3M melanoma
SK-MEL-28 melanoma = tested on: SK-MEL-28 melanoma
ACHN renal = tested on: ACHN renal
HL-60(TB) leukemia = tested on: HL-60(TB) leukemia
SN12C renal = tested on: SN12C renal
SF-539 CNS = tested on: SF-539 CNS
SNB-75 CNS = tested on: SNB-75 CNS
UACC-257 melanoma = tested on: UACC-257 melanoma
DU-145 prostate = tested on: DU-145 prostate
OVCAR-8 ovarian = tested on: OVCAR-8 ovarian
MOLT-4 leukemia = tested on: MOLT-4 leukemia
RPMI-8226 leukemia = tested on: RPMI-8226 leukemia
NCI-H23 lung = tested on: NCI-H23 lung
K-562 leukemia = tested on: K-562 leukemia
KM12 colon = tested on: KM12 colon
RXF 393 renal = tested on: RXF 393 renal
OVCAR-4 ovarian = tested on: OVCAR-4 ovarian
HOP-62 NSCLC = tested on: HOP-62 NSCLC
LOX IMVI melanoma = tested on: LOX IMVI melanoma
UACC-62 melanoma = tested on: UACC-62 melanoma
CCRF-CEM leukemia = tested on: CCRF-CEM leukemia
SR leukemia = tested on: SR leukemia
MDA-MB-435 = tested on: MDA-MB-435
A498 renal = tested on: A498 renal
HCC-2998 colon = tested on: HCC-2998 colon
SK-OV-3 ovarian = tested on: SK-OV-3 ovarian

`O=C(/C=C/c1ccccc1Cl)c1nc2ccccc2n1Cc1ccc(F)cc1` showed a GI50 (SK-MEL-5 melanoma) of 5.23 µM, a TGI (SK-MEL-5 melanoma) of over 100 µM and a GI50 (HT29 colon) of 3.64 µM. For the same compound, the TGI (HT29 colon) was over 100 µM, the GI50 (IGROV1 ovarian) was 3.33 µM and the TGI (IGROV1 ovarian) was over 100 µM. For the same compound, the GI50 (T-47D breast) was 3.44 µM, the TGI (T-47D breast) was over 100 µM and the GI50 (A549 NSCLC) was 8.06 µM. The TGI (A549 NSCLC) was over 100 µM, the GI50 (TK-10 renal) was 6.22 µM and the TGI (TK-10 renal) was over 100 µM. It also gave a GI50 (HS 578T breast) of 4.51 µM, a TGI (HS 578T breast) of 58.6 µM and a GI50 (NCI-H522 lung) of 4.49 µM. It also gave a TGI (NCI-H522 lung) of over 100 µM, a GI50 (SF-295 CNS) of 5.01 µM and a TGI (SF-295 CNS) of 25.1 µM. For the same compound, the GI50 (EKVX NSCLC) was 6.44 µM, the TGI (EKVX NSCLC) was over 100 µM and the GI50 (PC-3 prostate) was 4.45 µM. It also gave a TGI (PC-3 prostate) of over 100 µM, a GI50 (SF-268 CNS) of 8.56 µM and a TGI (SF-268 CNS) of over 100 µM. For the same compound, the GI50 (CAKI-1 renal) was 3.47 µM, the TGI (CAKI-1 renal) was over 100 µM and the GI50 (NCI-H226 lung) was 25.4 µM. For the same compound, the TGI (NCI-H226 lung) was over 100 µM, the GI50 (UO-31 renal) was 2.58 µM and the TGI (UO-31 renal) was 11.2 µM. For the same compound, the GI50 (SK-MEL-2 melanoma) was 13.4 µM, the TGI (SK-MEL-2 melanoma) was over 100 µM and the GI50 (OVCAR-5 ovarian) was 3.76 µM. It also gave a TGI (OVCAR-5 ovarian) of 73.1 µM, a GI50 (COLO 205 colon) of 4.01 µM and a TGI (COLO 205 colon) of over 100 µM. The GI50 (SNB-19 CNS) was 3.99 µM, the TGI (SNB-19 CNS) was 70 µM and the GI50 (HOP-92 NSCLC) was 16.4 µM. For the same compound, the TGI (HOP-92 NSCLC) was 62.8 µM, the GI50 (MDA-MB-231 breast) was 2.59 µM and the TGI (MDA-MB-231 breast) was 6.68 µM. The GI50 (MALME-3M melanoma) was 8.22 µM, the TGI (MALME-3M melanoma) was 70.2 µM and the GI50 (SK-MEL-28 melanoma) was 2.75 µM. The TGI (SK-MEL-28 melanoma) was 7.72 µM, the GI50 (ACHN renal) was 5.23 µM and the TGI (ACHN renal) was over 100 µM. It also gave a GI50 (HL-60(TB) leukemia) of 2.51 µM, a TGI (HL-60(TB) leukemia) of over 100 µM and a GI50 (SN12C renal) of 20.1 µM. It also gave a TGI (SN12C renal) of over 100 µM, a GI50 (SF-539 CNS) of 2.33 µM and a TGI (SF-539 CNS) of 5.67 µM. For the same compound, the GI50 (SNB-75 CNS) was 3.3 µM, the TGI (SNB-75 CNS) was over 100 µM and the GI50 (UACC-257 melanoma) was 8.88 µM. It also gave a TGI (UACC-257 melanoma) of over 100 µM, a GI50 (DU-145 prostate) of 4.61 µM and a TGI (DU-145 prostate) of over 100 µM. The GI50 (OVCAR-8 ovarian) was 3.25 µM, the TGI (OVCAR-8 ovarian) was over 100 µM and the GI50 (MOLT-4 leukemia) was 3.04 µM. The TGI (MOLT-4 leukemia) was over 100 µM, the GI50 (RPMI-8226 leukemia) was 2.97 µM and the TGI (RPMI-8226 leukemia) was over 100 µM. For the same compound, the GI50 (NCI-H23 lung) was 4.25 µM, the TGI (NCI-H23 lung) was over 100 µM and the GI50 (K-562 leukemia) was 3.3 µM. It also gave a TGI (K-562 leukemia) of over 100 µM, a GI50 (KM12 colon) of 3.34 µM and a TGI (KM12 colon) of over 100 µM. It also gave a GI50 (RXF 393 renal) of 2.06 µM, a TGI (RXF 393 renal) of 5.35 µM and a GI50 (OVCAR-4 ovarian) of 23 µM. The TGI (OVCAR-4 ovarian) was over 100 µM, the GI50 (HOP-62 NSCLC) was 5.03 µM and the TGI (HOP-62 NSCLC) was 41.9 µM. It also gave a GI50 (LOX IMVI melanoma) of 1.65 µM, a TGI (LOX IMVI melanoma) of 3.23 µM and a GI50 (UACC-62 melanoma) of 3.42 µM. For the same compound, the TGI (UACC-62 melanoma) was 17.9 µM, the GI50 (CCRF-CEM leukemia) was 2.45 µM and the TGI (CCRF-CEM leukemia) was over 100 µM. For the same compound, the GI50 (SR leukemia) was 2.87 µM, the TGI (SR leukemia) was over 100 µM and the GI50 (MDA-MB-435) was 2.37 µM. For the same compound, the TGI (MDA-MB-435) was 5.92 µM, the GI50 (A498 renal) was 61.8 µM and the TGI (A498 renal) was over 100 µM. It also gave a GI50 (HCC-2998 colon) of 3.16 µM, a TGI (HCC-2998 colon) of 55.8 µM and a GI50 (SK-OV-3 ovarian) of 32.5 µM. The TGI (SK-OV-3 ovarian) was over 100 µM.
